Data as given in patent US9108921B2, “Therapeutic compounds and compositions” (AGIOS PHARMACEUTICALS, INC, priority 2014, dated 2015).

How the values were obtained:
[1] = target: T1, PKR WT (Homo sapiens, UniProt P30613); test: PKR WT enzymatic AC50 assay; assay type: biochemical; details: wild type PKR
Outline: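 Human PKR (WT or mutant, 80-400 ng/well) in 50 mM Tris pH 7.5, 100 mM KCl, 5 mM MgCl2, 1 mM DTT, 0.03% BSA with PEP 0.1-0.5 mM, NADH 180 uM and LDH, preincubated 60 min at room temperature with compound (11-point 3-fold series from 100 μM final, 1% DMSO). ADP 0.22-1.65 mM started reaction; A340 followed.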

[2] = target: PKR R532W (Homo sapiens, UniProt P30613, R532W); test: PKR Mutant Assay, AC50 against PKR R532W; assay type: biochemical; details: mutant PKR R532W enzyme
Sequence of PKR R532W (P30613 whole entry R532W): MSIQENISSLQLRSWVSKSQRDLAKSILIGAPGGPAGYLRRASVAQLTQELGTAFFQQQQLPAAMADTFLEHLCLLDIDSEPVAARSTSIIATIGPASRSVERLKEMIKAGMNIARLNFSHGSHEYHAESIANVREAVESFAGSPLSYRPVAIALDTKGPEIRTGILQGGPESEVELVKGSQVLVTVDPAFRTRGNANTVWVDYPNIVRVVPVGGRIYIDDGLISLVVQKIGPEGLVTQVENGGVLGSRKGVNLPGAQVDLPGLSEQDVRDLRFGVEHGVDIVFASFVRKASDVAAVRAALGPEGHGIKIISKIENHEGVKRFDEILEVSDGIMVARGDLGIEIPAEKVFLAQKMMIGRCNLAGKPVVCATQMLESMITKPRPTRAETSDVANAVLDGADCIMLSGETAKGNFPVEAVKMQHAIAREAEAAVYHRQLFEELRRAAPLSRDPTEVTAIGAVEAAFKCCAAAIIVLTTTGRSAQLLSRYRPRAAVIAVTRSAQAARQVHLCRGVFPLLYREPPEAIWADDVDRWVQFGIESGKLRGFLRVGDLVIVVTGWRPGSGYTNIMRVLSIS
Outline: (§1)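 Human PKR mutant enzyme (80-400 ng/well) was preincubated 60 min at room temperature with compound (11-point, 3-fold series from 100 μM top, 1% DMSO) in 100 mM KCl, 50 mM Tris pH 7.5, 5 mM MgCl2, 1 mM DTT, 0.03% BSA. ADP (0.22-1.65 mM) started the reaction, with PEP 0.1-0.5 mM.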

[3] = target: PKR R510Q (Homo sapiens, UniProt P30613, R510Q); test: PKR Mutant Assay, AC50 against PKR R510Q; assay type: biochemical; details: mutant PKR R510Q enzyme
Sequence of PKR R510Q (P30613 whole entry R510Q): as the sequence (P30613 whole entry R532W) above, with R510Q, W532R counted along it
Outline: as §1

[4] = target: T1, PKR WT; test: PKR WT cell based AC50 assay; details: wild type PKR

T1 sequence (P30613 whole entry): as the sequence (P30613 whole entry R532W) above, with W532R counted along it

Row | SMILES | AC50 [1] | AC50 [2] | AC50 [3] | AC50 [4]
1 | O=C(c1ccc(NS(=O)(=O)c2cccc3nccnc23)cc1)N1CCC(O)(c2ccccc2Cl)CC1 [Compound 162, N-(4-(4-(2-chlorophenyl)-4-hydroxypiperidine-1-carbonyl)phenyl)quinoxaline-5-sulfonamide] | < 100 nM | < 100 nM | 101 to 1000 nM | < 100 nM
2 | COc1cccc(CC2(O)CCN(C(=O)c3ccc(NS(=O)(=O)c4cccc5cccnc45)cc3)CC2)c1 [Compound 135, N-(4-(4-hydroxy-4-(3-methoxybenzyl)piperidine-1-carbonyl)phenyl)quinoline-8-sulfonamide] | < 100 nM | < 100 nM | 101 to 1000 nM | < 100 nM
3 | O=C(c1ccc(NS(=O)(=O)c2cccc3cccnc23)cc1)N1CCC(O)(Cc2cccc(F)c2)CC1 [Compound 105, N-(4-(4-(3-fluorobenzyl)-4-hydroxypiperidine-1-carbonyl)phenyl)quinoline-8-sulfonamide] | < 100 nM | < 100 nM | < 100 nM | < 100 nM
4 | CC(C)CC1(O)CCN(C(=O)c2ccc(NS(=O)(=O)c3cccc4nccnc34)cc2)CC1 [Compound 160, N-(4-(4-hydroxy-4-isobutylpiperidine-1-carbonyl)phenyl)quinoxaline-5-sulfonamide] | < 100 nM | < 100 nM | < 100 nM | < 100 nM
5 | O=C(c1ccc(NS(=O)(=O)c2cccc3scnc23)cc1)N1CCC(O)(CC2CCC2)CC1 [Compound 212, N-(4-(4-(cyclobutylmethyl)-4-hydroxypiperidine-1-carbonyl)phenyl)benzo[d]thiazole-4-sulfonamide] | < 100 nM | < 100 nM | 101 to 1000 nM | < 100 nM
6 | O=C(c1ccc(NS(=O)(=O)c2cccc3ccoc23)cc1)N1CCC(O)(c2ccccc2Cl)CC1 [Compound 186, N-(4-(4-(2-chlorophenyl)-4-hydroxypiperidine-1-carbonyl)phenyl)benzofuran-7-sulfonamide] | < 100 nM | < 100 nM | 101 to 1000 nM | 101 to 1000 nM
7 | O=C(c1ccc(NS(=O)(=O)c2cccc3scnc23)cc1)N1CCC(O)(CCC(F)=C(F)F)CC1 [Compound 395, N-(4-(4-hydroxy-4-(3,4,4-trifluorobut-3-enyl)piperidine-1-carbonyl)phenyl)benzo[d]thiazole-4-sulfonamide] | < 100 nM | < 100 nM | 101 to 1000 nM | 101 to 1000 nM
8 | COc1cc(NS(=O)(=O)c2cccc3cccnc23)ccc1C(=O)N1CCC(O)(c2ccccc2Cl)CC1 [Compound 170, N-(4-(4-(2-chlorophenyl)-4-hydroxypiperidine-1-carbonyl)-3-methoxyphenyl)quinoline-8-sulfonamide] | < 100 nM | < 100 nM | 101 to 1000 nM | 101 to 1000 nM
9 | Cc1cc(C(=O)N2CCC(O)(c3cccc(F)c3F)CC2)ccc1NS(=O)(=O)c1ccc(F)c2cccnc12 [Compound 220, N-(4-(4-(2,3-difluorophenyl)-4-hydroxypiperidine-1-carbonyl)-2-methylphenyl)-5-fluoroquinoline-8-sulfonamide] | < 100 nM | < 100 nM | 101 to 1000 nM | 1010 to 10000 nM
10 | O=C(c1ccc(NS(=O)(=O)c2cccc3c(O)ncnc23)cc1)N1CCC(O)(CCC(F)(F)F)CC1 [Compound 426] | 101 to 1000 nM | 101 to 1000 nM | 101 to 1000 nM | 101 to 1000 nM
11 | O=C(c1ccc(NS(=O)(=O)c2cccc3scnc23)cc1)N1CCC(O)(CCCC(F)F)CC1 [Compound 389, N-(4-(4-(4,4-difluorobutyl)-4-hydroxypiperidine-1-carbonyl)phenyl)benzo[d]thiazole-4-sulfonamide] | < 100 nM | < 100 nM | < 100 nM | < 100 nM
12 | O=C(c1ccc(NS(=O)(=O)c2cccc3nccnc23)cc1)N1CCC(O)(c2ccccc2)CC1 [Compound 243, N-(4-(4-hydroxy-4-phenylpiperidine-1-carbonyl)phenyl)quinoxaline-5-sulfonamide] | 101 to 1000 nM | 101 to 1000 nM | 1010 to 10000 nM | < 100 nM
13 | O=C(c1ccc(NS(=O)(=O)c2cccc3cccnc23)cc1)N1CCC(O)(c2ccc(F)c(Br)n2)CC1 [Compound 133, N-(4-(4-(6-bromo-5-fluoropyridin-2-yl)-4-hydroxypiperidine-1-carbonyl)phenyl)quinoline-8-sulfonamide] | < 100 nM | < 100 nM | < 100 nM | < 100 nM
14 | Cc1cccnc1C1(O)CCN(C(=O)c2ccc(NS(=O)(=O)c3cccc4cccnc34)cc2)CC1 [Compound 153, N-(4-(4-hydroxy-4-(3-methylpyridin-2-yl)piperidine-1-carbonyl)phenyl)quinoline-8-sulfonamide] | < 100 nM | < 100 nM | 101 to 1000 nM | < 100 nM
15 | O=C(c1ccc(NS(=O)(=O)c2cccc3cccnc23)cc1OC(F)(F)F)N1CCC(O)(c2ccccc2Cl)CC1 [Compound 136, N-(4-(4-(2-chlorophenyl)-4-hydroxypiperidine-1-carbonyl)-3-(trifluoromethoxy)phenyl)quinoline-8-sulfonamide] | < 100 nM | < 100 nM | < 100 nM | < 100 nM
16 | CC(C)CC1(O)CCN(C(=O)c2ccc(NS(=O)(=O)c3cccc4ncc(N)nc34)cc2)CC1 [Compound 437] | < 100 nM | < 100 nM | < 100 nM | < 100 nM
17 | COc1ccccc1CC1(O)CCN(C(=O)c2ccc(NS(=O)(=O)c3cccc4cccnc34)cc2)CC1 [Compound 116, N-(4-(4-hydroxy-4-(2-methoxybenzyl)piperidine-1-carbonyl)phenyl)quinoline-8-sulfonamide] | < 100 nM | < 100 nM | < 100 nM | < 100 nM
18 | O=C(c1ccc(NS(=O)(=O)c2cccc3scnc23)cc1)N1CCC(O)(c2ccccc2C(F)F)CC1 [Compound 215, N-(4-(4-(2-(difluoromethyl)phenyl)-4-hydroxypiperidine-1-carbonyl)phenyl)benzo[d]thiazole-4-sulfonamide] | < 100 nM | < 100 nM | 101 to 1000 nM | 101 to 1000 nM
19 | Cc1nc(C(=O)N2CCC(O)(c3ccccc3Cl)CC2)ccc1NS(=O)(=O)c1cccc2cccnc12 [Compound 210, N-(6-(4-(2-chlorophenyl)-4-hydroxypiperidine-1-carbonyl)-2-methylpyridin-3-yl)quinoline-8-sulfonamide] | < 100 nM | < 100 nM | 101 to 1000 nM | 101 to 1000 nM
20 | CC(C)CCC1(O)CCN(C(=O)c2ccc(NS(=O)(=O)c3cccc4scnc34)cc2)CC1 [Compound 392, N-(4-(4-hydroxy-4-isopentylpiperidine-1-carbonyl)phenyl)benzo[d]thiazole-4-sulfonamide] | < 100 nM | < 100 nM | < 100 nM | < 100 nM
21 | Cc1ccc(C2(O)CCN(C(=O)c3ccc(NS(=O)(=O)c4cccc5cccnc45)cc3)CC2)c(Cl)c1 [Compound 190, N-[4-[4-(2-chloro-4-methyl-phenyl)-4-hydroxy-piperidine-1-carbonyl]phenyl]quinoline-8-sulfonamide] | < 100 nM | < 100 nM | 101 to 1000 nM | 101 to 1000 nM
22 | Cc1cc(NS(=O)(=O)c2cccc3cccnc23)ccc1C(=O)N1CCC(O)(c2ccccc2Cl)CC1 [Compound 141, N-(4-(4-(2-chlorophenyl)-4-hydroxypiperidine-1-carbonyl)-3-methylphenyl)quinoline-8-sulfonamide] | < 100 nM | < 100 nM | 101 to 1000 nM | < 100 nM
23 | O=C(c1ccc(NS(=O)(=O)c2ccc(F)c3cccnc23)cc1)N1CCC(O)(c2ccccc2Cl)CC1 [Compound 179, N-(4-(4-(2-chlorophenyl)-4-hydroxypiperidine-1-carbonyl)phenyl)-5-fluoroquinoline-8-sulfonamide] | < 100 nM | < 100 nM | 101 to 1000 nM | < 100 nM
24 | CC(C)(C)C1(O)CCN(C(=O)c2ccc(NS(=O)(=O)c3cccc4cccnc34)cc2)CC1 [Compound 195, N-(4-(4-(tert-butyl)-4-hydroxypiperidine-1-carbonyl)phenyl)quinoline-8-sulfonamide] | < 100 nM | < 100 nM | 101 to 1000 nM | < 100 nM
25 | O=C(c1ccc(NS(=O)(=O)c2cccc3scnc23)cc1)N1CCC(O)(CC2CC2(F)F)CC1 (stereo not shown) [Compound 432] | < 100 nM | < 100 nM | 101 to 1000 nM | 101 to 1000 nM
26 | O=C(c1ccc(NS(=O)(=O)c2cccc3scnc23)cc1)N1CCC(O)(/C=C/CC(F)(F)F)CC1 [Compound 404, (E)-N-(4-(4-hydroxy-4-(4,4,4-trifluorobut-1-enyl)piperidine-1-carbonyl)phenyl)benzo[d]thiazole-4-sulfonamide] | < 100 nM | < 100 nM | < 100 nM | 101 to 1000 nM
27 | O=C(c1ccc(NS(=O)(=O)c2cccc3c(O)ncnc23)cc1)N1CCC(O)(/C=C/CC(F)(F)F)CC1 [Compound 424] | < 100 nM | 101 to 1000 nM | < 100 nM | 101 to 1000 nM
28 | CC(C)(C)CC1(O)CCN(C(=O)c2ccc(NS(=O)(=O)c3ccc(F)c4cccnc34)cc2)CC1 [Compound 187, 5-fluoro-N-(4-(4-hydroxy-4-neopentylpiperidine-1-carbonyl)phenyl)quinoline-8-sulfonamide] | < 100 nM | < 100 nM | < 100 nM | < 100 nM
